Assay [1] deals with rat subcutaneous infiltration model. Kind of assay: Local anesthetic effect by subcutaneous infiltration, Von Frey needle stimulation of back skin. The format is in vivo, SD rats. The method, then:
After shaving and disinfecting the backs of SD rats (half male and half female) weighing 190-210 grams, a circle with a diameter of approximately 1.5 cm was drawn on one side of the exposed skin. 0.5 mL of a solution containing the drug was subcutaneously injected into the skin in the center. The solution, using physiological saline as the solvent, contained either 2 mg/ml bupivacaine hydrochloride or 1 mg/ml concentration of the compounds listed in Table 2 of the present application. Each group consisted of 10 rats. A Von Frey fiber with a 100-gram force was attached to a needle for local skin stimulation. One minute after drug administration, the rat's response to the stimulus was measured. Testing was conducted at 6 different points within the marked area of drug administration. Skin contraction, avoidance, and other behaviors following stimulation were observed and recorded. Three points in the center and three points around the circle were stimulated, and the number of skin contraction and avoidance behaviors was recorded as N6. […] Each compound was tested on 10 rats.

Assay [2] has as its system sciatic nerve of the rat. The format is in vivo, SD rats. As for the experimental part:
The experimental methods described in the following test examples were standard procedures unless otherwise specified. All experimental animals used in the following test examples were SD rats purchased from Hunan Slac Jingda Experimental Animal Co., Ltd. Other test materials, unless stated otherwise, were purchased from conventional biochemical reagent suppliers.
The compounds listed in Table 1 and levobupivacaine hydrochloride (positive control) were administered to three groups of rats fully acclimated to the experimental environment, with one rat per group.
Solution Preparation: 2 mg/ml Levobupivacaine Hydrochloride Injection: 2.670 ml of 7.5 mg/ml levobupivacaine hydrochloride injection (Batch No. 92S0702) was pipetted into a 10 ml volumetric flask. 0.9% NaCl solution was added until the meniscus was level with the calibration line, and the solution was inverted and mixed thoroughly, to prepare 2 mg/ml levobupivacaine hydrochloride injection. 2 mg/ml Example Compound Solution: 6.6 mg of the example compound was accurately weighed and dissolved in 3.3 ml of 0.9% NaCl solution to prepare a 2 mg/ml example compound solution.
Both the positive control and the example compound were administered to each rat at 2 mg/ml, with an administration volume of 5 ml/kg, in a single injection near the sciatic nerve of the rat. After the administration, the rat was placed on a preheated hot plate (50±0.1° C.) of an intelligent hot plate instrument. […] The maximum thermal latency was controlled at 60 s. […] Any urine or feces on the hot plate was promptly cleaned and dried before subsequent tests.
Thermal latency results were expressed as the maximum proportional effect (MPE), calculated using the following formula.
Wherein: B represented the basal thermal latency of the rats; P was the maximum thermal latency C was the observed thermal latency at the detection time point.
Measurements were considered invalid if the MPE was less than 50% of the maximum proportional effect. If two consecutive measurements yielded an MPE of less than […], the experiment was terminated.

Where [3] appears, read: 1 mg/ml, 0.5 mL subcutaneous injection on the back, 10 rats.
Where [4] appears, read: 2 mg/ml, 5 ml/kg, single injection near the sciatic nerve of the rat, hot plate 50±0.1° C.

Structures can show the parent of a compound that is named as a salt. Where two headings read alike, the source gives them in different places.

The results in this text go back to patent US20250326755A1, “CYCLIC QUATERNARY AMMONIUM SALT COMPOUND, AND PREPARATION METHOD THEREFOR AND USE THEREOF” (YICHANG HUMANWELL PHARMACEUTICAL CO., LTD., priority 2022, published 2025).

Consider `CCCC[N+]1(CCCCNc2ccccc2)CCCC[C@H]1C(=O)Nc1c(C)cccc1C` (stereo partly drawn) [Compound of Example 1, (2S)-1-Butyl-2-((2,6-dimethylphenyl)carbamoyl)-1-(4-(phenylamino)butyl)piperidine bromide], for which, in assay [1] (setting [3]), the Duration/h was 48 to 72 h and the “Onset Time/min” value turned out to be 1 min. In assay [2] (rat, in vivo), the Duration/h was 24 to 48 h and the “Onset Time/min” value is 1 min.
On to `CCCC[N+]1(CCCCOc2ccccc2)CCCC[C@H]1C(=O)Nc1c(Br)cccc1Br` (stereo partly drawn) [Compound of Example 40, (2S)-1-Butyl-2-((2,6-dibromophenyl)carbamoyl)-1-(4-phenoxybutyl)piperidine bromide], for which the Duration/h is 48 to 72 h in assay [1] (setting [3]) and 32 to 48 h in assay [2] (rat, in vivo). Moreover, the “Onset Time/min” value in assay [1] (setting [3]) is given as 1 min; in assay [2] (rat, in vivo) it was 1 min.
Take `CCCC[N+]1(CCCCNc2ccc(C)cc2)CCCC[C@H]1C(=O)Nc1c(C)cccc1C` (stereo partly drawn) [Compound of Example 2, (2S)-1-Butyl-2-((2,6-dimethylphenyl)carbamoyl)-1-(4-(p-toluidino)butyl)piperidine bromide]: in assay [1] (setting [3]), the Duration/h is 72 to 96 h and the “Onset Time/min” value is on record as 1 min. For the same compound, in assay [2] (setting [4]), the Duration/h is 48 to 72 h and the “Onset Time/min” value was 1 min.
As for `CCCCN1CCCC[C@H]1C(=O)Nc1c(C)cccc1C` [Levobupivacaine Hydrochloride, reference compound], the Duration/h in assay [1] (Drug Concentration 6.9 mmol/L, subcutaneous infiltration) turned out to be 3 h; in assay [1] (control at 2 mg/ml (6.9 mmol/L), 0.5 mL subcutaneous injection on the back) it was 3 h; in assay [2] (setting [4]) it was 3 h.
Regarding `CCCC[N+]1(CCCCOc2ccc(F)cc2)CCCC[C@H]1C(=O)Nc1c(C)cccc1C` (stereo partly drawn) [Compound of Example 24, (2S)-1-Butyl-2-((2,6-dimethylphenyl)carbamoyl)-1-(4-(4-fluorophenoxy)butyl)piperidine bromide], in assay [1] (setting [3]), the Duration/h lay within 48 to 72 h and the “Onset Time/min” value came to 1 min. For the same compound, the “Onset Time/min” value in assay [2] (setting [4]) came to 1 min.
In the case of `CCCC[N+]1(CCCCCOc2cc(F)ccc2N)CCCC[C@H]1C(=O)Nc1c(C)cccc1C` (stereo partly drawn) [Compound of Example 16, (2S)-1-(5-(2-amino-5-fluorophenoxy)pentyl)-1-butyl-2-((2,6-dimethylphenyl)carbamoyl)piperidine bromide], the Duration/h in assay [1] (setting [3]) lay in the range of 48 to 72 h; in assay [2] (setting [4]), 24 to 48 h. Further, the “Onset Time/min” value in assay [1] (setting [3]) and in assay [2] (setting [4]) was 1 min throughout.
Turning to `CCCC[N+]1(CCCCCNc2ccc(F)cc2)CCCC[C@H]1C(=O)Nc1c(C)cccc1C` (stereo partly drawn) [Compound of Example 10, (2S)-1-Butyl-2-((2,6-dimethylphenyl)carbamoyl)-1-(5-(p-fluorophenylamino)pentyl)piperidine bromide], in assay [1] (setting [3]), the Duration/h lay in the range of 48 to 72 h and the “Onset Time/min” value turned out to be 2 min. Further, the “Onset Time/min” value in assay [2] (setting [4]) amounted to 2 min.
As for `CCCC[N+]1(CCCCOc2cc(F)ccc2N)CCCC[C@H]1C(=O)Nc1c(C)cccc1C` (stereo partly drawn) [Compound of Example 6, (2S)-1-(4-(2-amino-5-fluorophenoxy)butyl)-1-butyl-2-((2,6-dimethylphenyl)carbamoyl) piperidine bromide], the Duration/h in assay [1] (setting [3]) was 48 to 72 h; in assay [2] (setting [4]) it was 24 to 48 h. Besides, the “Onset Time/min” value in assay [1] (setting [3]) and in assay [2] (setting [4]) was 1 min throughout.
For `CCCC[N+]1(CCCCCN(C)c2ccccc2)CCCC[C@H]1C(=O)Nc1c(C)cccc1C` (stereo partly drawn) [Compound of Example 8, (2S)-1-Butyl-2-((2,6-dimethylphenyl)carbamoyl)-1-(5-(methyl(phenyl)amino)pentyl)piperidine bromide], the Duration/h fell in the range of 48 to 72 h in assay [1] (setting [3]) and 24 to 48 h in assay [2] (setting [4]). Further, the “Onset Time/min” value in assay [1] (setting [3]) and in assay [2] (setting [4]) was 1 min throughout.
In the case of `Cc1cccc(C)c1NC(=O)[C@@H]1CCCC[N+]1(CCCCOc1ccccc1)CCCC(C)C` (stereo partly drawn) [Compound of Example 38, (2S)-2-((2,6-Dimethylphenyl)carbamoyl)-1-(4-methylpentyl)-1-(4-phenoxybutyl)piperidine bromide], in assay [1] (setting [3]), the Duration/h was in the range of 48 to 72 h and the “Onset Time/min” value turned out to be 1 min. In assay [2] (rat, in vivo), the Duration/h was in the range of 48 to 72 h and the “Onset Time/min” value is listed as 1 min.
Consider `CCCC[N+]1(CCC(C)CCNc2ccc(F)cc2)CCCC[C@H]1C(=O)Nc1c(C)cccc1C` (stereo partly drawn) [Compound of Example 18, (2S)-1-Butyl-2-((2,6-dimethylphenyl)carbamoyl)-1-(5-(((4-fluorophenyl)amino)-3-methylpentyl)piperidine bromide], for which, in assay [1] (setting [3]), the Duration/h fell in the range of 24 to 28 h and the “Onset Time/min” value amounted to 2 min. In addition, in assay [2] (setting [4]), the Duration/h came to 17 h and the “Onset Time/min” value is on record as 2 min.
On to `CCCC[N+]1(CCCCOc2cccc3c2OC(C)(C)C3)CCCC[C@H]1C(=O)Nc1c(C)cccc1C` (stereo partly drawn) [Compound of Example 44, (2S)-1-Butyl-1-(4-((2,2-dimethyl-2,3-dihydrobenzofuran-7-yl)oxy)butyl)-2-((2,6-dimethylphenyl)carbamoyl)piperidine bromide], for which, in assay [1] (setting [3]), the Duration/h lay within 48 to 72 h and the “Onset Time/min” value was determined as 1 min. The “Onset Time/min” value in assay [2] (setting [4]) stood at 1 min.
For the compound `CCCC[N+]1(CCCCOc2cccc(C#N)c2)CCCC[C@H]1C(=O)Nc1c(C)cccc1C` (stereo partly drawn) [Compound of Example 27, (2S)-1-Butyl-1-(4-(3-cyanophenoxy)butyl)-2-((2,6-dimethylphenyl)carbamoyl)piperidine bromide], in assay [1] (setting [3]), the Duration/h was 48 to 72 h and the “Onset Time/min” value amounted to 1 min. Besides, in assay [2] (setting [4]), the Duration/h was 24 to 48 h and the “Onset Time/min” value worked out at 1 min.
As for `CCCC[N+]1(CCCCOc2ccc(C)cc2)CCCC[C@H]1C(=O)Nc1c(C)cccc1C` (stereo partly drawn) [Compound of Example 31, (2S)-1-Butyl-2-((2,6-dimethylphenyl)carbamoyl)-1-(4-(p-tolyloxy)butyl)piperidine bromide], in assay [1] (setting [3]), the Duration/h was 48 to 72 h and the “Onset Time/min” value turned out to be 1 min. Besides, in assay [2] (setting [4]), the Duration/h was 24 to 30 h and the “Onset Time/min” value is recorded as 1 min.
Regarding `Cc1cccc(C)c1NC(=O)[C@@H]1CCCC[N+]1(CCCCOc1ccccc1)CC1CCCC1` (stereo partly drawn) [Compound of Example 36, (2S)-1-(Cyclopentylmethyl)-2-((2,6-dimethylphenyl)carbamoyl)-1-(4-phenoxybutyl)piperidine bromide], in assay [1] (setting [3]), the Duration/h was in the range of 48 to 72 h and the “Onset Time/min” value is on record as 1 min. In assay [2] (setting [4]), the Duration/h lay in the range of 30 to 48 h and the “Onset Time/min” value was determined as 1 min.
For `CCCC[N+]1(CCCCOc2cccc(C(F)(F)F)c2)CCCC[C@H]1C(=O)Nc1c(C)cccc1C` (stereo partly drawn) [Compound of Example 28, (2S)-1-Butyl-2-((2,6-dimethylphenyl)carbamoyl)-1-(4-(3-(trifluoromethyl)phenoxy)butyl) piperidine bromide], in assay [1] (setting [3]), the Duration/h is 48 to 72 h and the “Onset Time/min” value came to 1 min. In assay [2] (setting [4]), the Duration/h was in the range of 24 to 48 h and the “Onset Time/min” value is given as 1 min.
On to `CCCC[N+]1(CCCCOc2cccc(F)c2)CCCC[C@H]1C(=O)Nc1c(C)cccc1C` (stereo partly drawn) [Compound of Example 26, (2S)-1-Butyl-2-((2,6-dimethylphenyl)carbamoyl)-1-(4-(3-fluorophenoxy)butyl)piperidine bromide], for which, in assay [1] (setting [3]), the Duration/h fell in the range of 48 to 72 h and the “Onset Time/min” value amounted to 1 min. In assay [2] (setting [4]), the Duration/h lay within 24 to 42 h and the “Onset Time/min” value is given as 1 min.
Consider `CCCC[N+]1(CCCCCNc2ccc(C)cc2)CCCC[C@H]1C(=O)Nc1c(C)cccc1C` (stereo partly drawn) [Compound of Example 9, (2S)-1-Butyl-2-((2,6-dimethylphenyl)carbamoyl)-1-(5-(p-toluylamino)pentyl)piperidine bromide], for which, in assay [1] (setting [3]), the Duration/h was in the range of 48 to 72 h and the “Onset Time/min” value is on record as 1 min. Besides, in assay [2] (setting [4]), the Duration/h was 24 to 48 h and the “Onset Time/min” value came to 1 min.
